≈ marks a conversion by molar mass, not a printed value.
What was measured:
E. faecalis VSE 1 = assay: MIC, broth microdilution, vancomycin-sensitive E. faecalis (VSE 1); format: cell-based, Enterococcus faecalis; conditions: for MIC: Enterococcus faecalis VSE 1 (vancomycin-sensitive), read-out: MIC; for MIC-fold improvement vs. vancomycin: VSE 1, ratio of MIC of vancomycin and MIC of analogue
How it was run: (§1)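 CLSI broth microdilution; water and uninoculated-broth controls; one arm supplemented with vancomycin, final 10 μM, given with analogue or control antibiotic.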

E. faecalis VRE 6 = assay: MIC, broth microdilution, vancomycin-resistant E. faecalis VRE 6 (VanA); format: cell-based, Enterococcus faecalis; conditions: for MIC: Enterococcus faecalis VRE 6 (vancomycin-resistant), read-out: MIC; for MIC-fold improvement vs. vancomycin: VRE 6, ratio of MIC of vancomycin and MIC of analogue
How it was run: as §1

E. faecalis VRE 53 = assay: MIC, broth microdilution, vancomycin-resistant E. faecalis VRE 53 (VanA); format: cell-based, Enterococcus faecalis; conditions: for MIC: Enterococcus faecalis VRE 53 (vancomycin-resistant), read-out: MIC; for MIC-fold improvement vs. vancomycin: VRE 53, ratio of MIC of vancomycin and MIC of analogue
How it was run: as §1

E. faecalis VRE 29 = assay: MIC, broth microdilution, vancomycin-resistant E. faecalis VRE 29 (VanA); format: cell-based, Enterococcus faecalis; conditions: for MIC: Enterococcus faecalis VRE 29 (vancomycin-resistant), read-out: MIC; for MIC-fold improvement vs. vancomycin: VRE 29, ratio of MIC of vancomycin and MIC of analogue
How it was run: as §1

E. faecalis VRE 37 = assay: MIC, broth microdilution, vancomycin-resistant E. faecalis VRE 37 (VanA); format: cell-based, Enterococcus faecalis; conditions: for MIC: Enterococcus faecalis VRE 37 (vancomycin-resistant), read-out: MIC; for MIC-fold improvement vs. vancomycin: VRE 37, ratio of MIC of vancomycin and MIC of analogue
How it was run: as §1

[1] = tested on: Murine leukemia (L1210) cells; assay: Cytostatic activity, L1210 cell proliferation; format: cell-based; conditions: mean ± SD of three experiments; highest concentration tested 250 µM; 2 days; read-out: Toxicity (IC50) L1210
How it was run: (§2)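 Coulter counter cell counts after 37°C culture with compound; IC50 = concentration giving 50% growth inhibition vs negative control. Incubation: L1210 2 d, CEM 3 d, HeLa 4 d. Suspension density before mixing with an equal volume of dilution: 300,000–500,000 cells/mL.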

[2] = tested on: human T-lymphocyte (CEM) cells; assay: Cytostatic activity, CEM cell proliferation; format: cell-based; conditions: mean ± SD of three experiments; highest concentration tested 250 µM; 3 days; read-out: Toxicity (IC50) CEM
How it was run: as §2

[3] = tested on: human cervix carcinoma (HeLa) cells; assay: Cytostatic activity, HeLa cell proliferation; format: cell-based; conditions: mean ± SD of three experiments; highest concentration tested 250 µM; 4 days; read-out: Toxicity (IC50) HeLa
How it was run: as §2

[4] = tested on: L1210, CEM and HeLa cell lines; assay: Cytostatic activity, average or summary over L1210, CEM and HeLa; format: cell-based; conditions: average of L1210, CEM and HeLa; read-out: Toxicity (IC50) Average
How it was run: as §2

[5] = tested on: S. aureus VSSA (ATCC 6538); assay: MIC, broth microdilution, vancomycin-sensitive S. aureus (VSSA/MSSA, ATCC 6538); format: cell-based, Staphylococcus aureus; conditions: for MIC: Staphylococcus aureus VSSA, read-out: MIC; for MIC-fold improvement vs. vancomycin: VSSA, ratio of MIC of vancomycin and MIC of analogue
How it was run: as §1

S. aureus VISA/HIP5827 = assay: MIC, broth microdilution, vancomycin-intermediate S. aureus VISA HIP5827; format: cell-based, Staphylococcus aureus; conditions: for MIC: Staphylococcus aureus VISA/HIP5827, read-out: MIC; for MIC-fold improvement vs. vancomycin: VISA/HIP5827, ratio of MIC of vancomycin and MIC of analogue
How it was run: as §1

S. aureus VRSA = assay: MIC, broth microdilution, vancomycin-resistant S. aureus (VRSA); format: cell-based, Staphylococcus aureus; conditions: for MIC: Staphylococcus aureus VRSA, read-out: MIC; for MIC-fold improvement vs. vancomycin: VRSA, ratio of MIC of vancomycin and MIC of analogue
How it was run: as §1

MRSA KS2 = assay: MIC, broth microdilution, MRSA KS2; format: cell-based, Staphylococcus aureus; conditions: for MIC-fold improvement vs. vancomycin: MRSA KS2, ratio of MIC of vancomycin and MIC of analogue; for MIC: Staphylococcus aureus MRSA KS2, read-out: MIC
How it was run: as §1

MRSA KS6 = assay: MIC, broth microdilution, MRSA KS6; format: cell-based, Staphylococcus aureus; conditions: for MIC-fold improvement vs. vancomycin: MRSA KS6, ratio of MIC of vancomycin and MIC of analogue; for MIC: Staphylococcus aureus MRSA KS6, read-out: MIC
How it was run: as §1

MRSA KS89 = assay: MIC, broth microdilution, MRSA KS89; format: cell-based, Staphylococcus aureus; conditions: for MIC-fold improvement vs. vancomycin: MRSA KS8, ratio of MIC of vancomycin and MIC of analogue; for MIC: Staphylococcus aureus MRSA KS8, read-out: MIC
How it was run: as §1

MRSA KS1 = assay: MIC, broth microdilution, MRSA KS1; format: cell-based, Staphylococcus aureus; conditions: for MIC-fold improvement vs. vancomycin: MRSA KS1, ratio of MIC of vancomycin and MIC of analogue; for MIC: Staphylococcus aureus MRSA KS1, read-out: MIC
How it was run: as §1

Structure (SMILES) | MIC (E. faecalis VSE 1) | MIC-fold improvement vs. vancomycin (E. faecalis VSE 1) | MIC (E. faecalis VRE 6) | MIC-fold improvement vs. vancomycin (E. faecalis VRE 6) | MIC (E. faecalis VRE 53) | MIC-fold improvement vs. vancomycin (E. faecalis VRE 53) | MIC (E. faecalis VRE 29) | MIC-fold improvement vs. vancomycin (E. faecalis VRE 29) | MIC (E. faecalis VRE 37) | MIC-fold improvement vs. vancomycin (E. faecalis VRE 37) | IC50 [1] | IC50 [2] | IC50 [3] | IC50 [4] | MIC [5] | MIC-fold improvement vs. vancomycin [5] | MIC (S. aureus VISA/HIP5827) | MIC-fold improvement vs. vancomycin (S. aureus VISA/HIP5827) | MIC (S. aureus VRSA) | MIC-fold improvement vs. vancomycin (S. aureus VRSA) | other results
CNC(CC(C)C)C(=O)NC1C(=O)NC(CC(N)=O)C(=O)NC2C(=O)NC3C(=O)NC(C(=O)NC(C(=O)NCC(=O)Nc4ccc(C#CC5CC5)cc4)c4cc(O)cc(O)c4-c4cc3ccc4O)C(O)c3ccc(c(Cl)c3)Oc3cc2cc(c3OC2OC(CO)C(O)C(O)C2OC2CC(C)(N)C(O)C(C)O2)Oc2ccc(cc2Cl)C1O (stereo not drawn) [Vanc-70] | 0.78 µM (≈ 1.28 µg/mL) | 2 | 6.25 µM (≈ 10.3 µg/mL) | 32 | 6.25 µM (≈ 10.3 µg/mL) | 64 | 6.25 µM (≈ 10.3 µg/mL) | 64 | 6.25 µM (≈ 10.3 µg/mL) | 64 | ≥ 250 µM | 143 ± 113 µM | 73 ± 10 µM | 155 µM | 0.78 µM (≈ 1.28 µg/mL) | 1 | 0.78 µM (≈ 1.28 µg/mL) | 8 | 1.56 µM (≈ 2.57 µg/mL) | 64 | MIC-fold improvement vs. vancomycin (MRSA KS2): 4; MIC (MRSA KS2): 0.20 µM (≈ 0.329 µg/mL); MIC-fold improvement vs. vancomycin (MRSA KS6): 4; MIC (MRSA KS6): 0.20 µM (≈ 0.329 µg/mL); MIC-fold improvement vs. vancomycin (MRSA KS89): 2; MIC (MRSA KS89): 0.39 µM (≈ 0.642 µg/mL); MIC-fold improvement vs. vancomycin (MRSA KS1): 4; MIC (MRSA KS1): 0.20 µM (≈ 0.329 µg/mL)
CN[C@H](CC(C)C)C(=O)N[C@H]1C(=O)N[C@@H](CC(N)=O)C(=O)N[C@H]2C(=O)N[C@H]3C(=O)N[C@H](C(=O)N[C@H](C(=O)NCC(=O)Nc4ccc(Cl)cn4)c4cc(O)cc(O)c4-c4cc3ccc4O)[C@H](O)c3ccc(c(Cl)c3)Oc3cc2cc(c3O[C@@H]2O[C@H](CO)[C@@H](O)[C@H](O)[C@H]2O[C@H]2C[C@](C)(N)[C@H](O)[C@H](C)O2)Oc2ccc(cc2Cl)[C@H]1O [Vanc-44] | 0.78 µM (≈ 1.26 µg/mL) | 2 | 12.5 µM (≈ 20.2 µg/mL) | 16 | 50 µM (≈ 80.8 µg/mL) | 8 | 25 µM (≈ 40.4 µg/mL) | 16 | 25 µM (≈ 40.4 µg/mL) | 16 | ≥ 250 µM | ≥ 250 µM | 108 ± 38 µM | 203 µM | 0.78 µM (≈ 1.26 µg/mL) | 1 | 1.56 µM (≈ 2.52 µg/mL) | 4 | 12.5 µM (≈ 20.2 µg/mL) | 8 | MIC-fold improvement vs. vancomycin (MRSA KS2): 1; MIC (MRSA KS2): 0.78 µM (≈ 1.26 µg/mL); MIC-fold improvement vs. vancomycin (MRSA KS6): 0.25; MIC (MRSA KS6): 3.13 µM (≈ 5.06 µg/mL); MIC-fold improvement vs. vancomycin (MRSA KS89): 1; MIC (MRSA KS89): 0.78 µM (≈ 1.26 µg/mL); MIC-fold improvement vs. vancomycin (MRSA KS1): 1; MIC (MRSA KS1): 0.78 µM (≈ 1.26 µg/mL)
CNC(CC(C)C)C(=O)NC1C(=O)NC(CC(N)=O)C(=O)NC2C(=O)NC3C(=O)NC(C(=O)NC(C(=O)NCC(=O)NC4c5ccccc5-c5ccccc54)c4cc(O)cc(O)c4-c4cc3ccc4O)C(O)c3ccc(c(Cl)c3)Oc3cc2cc(c3OC2OC(CO)C(O)C(O)C2OC2CC(C)(N)C(O)C(C)O2)Oc2ccc(cc2Cl)C1O (stereo not drawn) [Vanc-90] | ≤0.05 µM | ≥32 | 1.56 µM (≈ 2.6 µg/mL) | 128 | 12.5 µM (≈ 20.9 µg/mL) | 32 | 3.13 µM (≈ 5.23 µg/mL) | 128 | 3.13 µM (≈ 5.23 µg/mL) | 128 | 175 ± 106 µM | 68 ± 8 µM | 127 ± 27 µM | 123 µM | 0.10 µM (≈ 0.167 µg/mL) | 8 | 0.39 µM (≈ 0.651 µg/mL) | 16 | 0.78 µM (≈ 1.3 µg/mL) | 128 | MIC-fold improvement vs. vancomycin (MRSA KS2): 8; MIC (MRSA KS2): 0.10 µM (≈ 0.167 µg/mL); MIC-fold improvement vs. vancomycin (MRSA KS6): 4; MIC (MRSA KS6): 0.20 µM (≈ 0.334 µg/mL); MIC-fold improvement vs. vancomycin (MRSA KS89): 4; MIC (MRSA KS89): 0.20 µM (≈ 0.334 µg/mL); MIC-fold improvement vs. vancomycin (MRSA KS1): 8; MIC (MRSA KS1): 0.10 µM (≈ 0.167 µg/mL)
